From patent US6894075B2, “4′-demethyl-4′-O-substituted-1-deoxypodophyllotoxin derivative and geometric isomer thereof, process for the preparation thereof and anti-cancer composition comprising the same” (priority 2000, dated 2005)
Several values for one entry are separate records, joined by “and”; a condition that tells them apart may be missing. Equal entries are not always repeated. Where two headings read alike, the source gives them in different places.

How the values were obtained:
A549 cell = assay: Cytotoxicity test (SRB method) for A549 cells; type: cell-based, human; conditions: for EC50: read-out: ED50(nM) for A549
Method in brief: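 SRB assay: cells seeded 24 h at 37 °C, then exposed 48 h to samples at 0.1, 0.03, 0.01 and 0.003 mg/ml final. TCA-fixed, SRB-stained, OD read at 520 nm. Growth is calculated against time-zero and untreated controls, and ED50 is the concentration giving 50% growth inhibition, obtained by regression.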

[1] = tested on: mouse leukemia cell line L1210; conditions: L1210 transplanted into CDF1 mouse, compared with the negative control (Terada et al. 1992); cited from earlier work
[2] = Weight change in the period of drug administration; type: in vivo, mouse; conditions: for Weight of mouse, Day 1: Day 1 from the cancer cell transplantation; for Weight of mouse, Day 2: Day 2 from the cancer cell transplantation; for Weight of mouse, Day 3: Day 3 from the cancer cell transplantation; for Weight of mouse, Day 4: Day 4 from the cancer cell transplantation; for Weight of mouse, Day 5: Day 5 from the cancer cell transplantation; for Weight of mouse, Day 6: Day 6 from the cancer cell transplantation; for Weight of mouse, Day 7: Day 7 from the cancer cell transplantation; for Weight of mouse, Day 8: Day 8 from the cancer cell transplantation
Procedure: (§1) Each group includes 5 mice. After 24 hours from the transplantation, each test compound of formulae (1a) and (1b) was dissolved in 4% Tween 80 and injected peritoneally in the amount of 0.2 ml and in a concentration of 0.06 mmole/kg/day (that is, 0.06 mmole of each test compound was dissolved in 10 ml of 4% Tween 80, and then 0.2 ml of the resulting solution was peritoneally injected into a mouse). Only 4% Tween 80 was injected for the negative control group, and the same moles of etoposide (36 mg/kg) was injected for the positive control group. The injection was performed five times at 1, 2, 4, 7 and 8 days from the transplantation of cancer.
As an index of toxicity, the weight change during the period of drug administration was recorded for the compounds of formulae (1a) and (1b) compared with the comparison compound of Etoposide.

[3] = tested on: Lewis Lung Cancer Cell (LLC); assay: Anti-cancer test for BDF1 mouse transplanted by Lewis Lung Cancer Cell, Experiment 2-1 (formulae 1a, 1b); type: in vivo; conditions: peritoneal injection 0.06 mmole/kg/day at days 1, 2, 4, 7, 8 (etoposide 36 mg/kg), cancer volume at 14 to 16 days
From the text: In order to evaluate the anti-cancer activity of the compounds of the present invention, LLC, which is a lung cancer cell of mouse, was transplanted into the hypodermic region of BDF1 mouse to induce a solid cancer. […] Experiment for the compounds of formulae (1a) and (1b) and that for the compound of formula (1c) were separately carried out.
Male BDF1 mouse (Weight 18 to 25 g), being in good health and purchased from Korea Biolink Co., was used as a test animal.
The mice were bred at a place controlled to the temperature of 23 to 24° C. while provided with water and feed ad libitum. As the feed, feed for mouse containing no antibiotics was used. The hypodermic tissue of C57BL/6 mouse, which includes cells cultured therein for 14 days, was taken up. Sterilized cold physiological saline was added to the tissue in the amount of 5 ml/g tissue to make a cell suspension. This cell suspension of 0.2 ml was transplanted into the hypodermic region of armpit of BDF1 mouse.
as §1
The anti-cancer effect was determined by measuring the volume of cancer of the control and test groups at 14 to 16 days from the administration of drugs and then calculated as follows. Volume of Cancer(mm^3)=Length(mm)×Width^2(mm^2)/2 Suppression Rate of Cancer Growth(%)=(C−T)×100(%)/C in which • C represents the average volume of cancer (mm^3) of the control group, and • T represents the average volume of cancer (mm^3) of the test group.

Row | SMILES | EC50 (A549 cell; Homo sapiens, A549, 48 h) | extension effect of life span [1] | Weight of mouse, Day 1 [2] | Weight of mouse, Day 2 [2] | Weight of mouse, Day 3 [2] | Weight of mouse, Day 4 [2] | Weight of mouse, Day 5 [2] | Weight of mouse, Day 6 [2] | Weight of mouse, Day 7 [2] | Weight of mouse, Day 8 [2] | Suppression Rate for LLC [3] | ED50(mg/mL) for A549 (A549 cell; A549, SRB, 48 hours incubation, Table 2) | EC50 (A549 cell; A549 human lung cancer cell, SRB, 48 hours incubation)
1 | COc1cc([C@@H]2c3cc4c(cc3C[C@H]3COC(=O)[C@@H]32)OCO4)cc(OC)c1OC [DPT, Deoxypodophyllotoxin] | 75.5 nM | about 12% | 23.1 g | 23.9 g | 24 g | 24 g | 24.4 g | 25 g | 25 g | 24.9 g | 60% and 60.2% | – | –
2 | COc1cc([C@@H]2c3cc4c(cc3[C@@H](O[C@@H]3O[C@@H]5CO[C@@H](C)O[C@H]5[C@H](O)[C@H]3O)[C@H]3COC(=O)[C@H]23)OCO4)cc(OC)c1O [Etoposide, reference compound] | – | – | 23 g | 24 g | 25.1 g | 26 g | 25.9 g | 26.3 g | 25.6 g | 26.6 g | 90% and 90.8% | 1.102 mg/mL | 1990 nM
